Laboratory results published in patent US20060106028A1, “Polycyclic aromatics and derivatives thereof and processes for their preparation” (priority 2004, published 2006).
In brackets after ≈: the same amount, converted by molar mass.

Experiments:
[1] = test system: Streptococcus pneumoniae PenR (LSPQ 3349); test: Antibacterial activity, MIC (NCCLS M7-A5); assay type: cell-based; conditions: MH medium +2% lysed horse blood
CRL nu/nu mice = test: Repeated dose toxicity in CRL nu/nu mice; assay type: in vivo
Procedure: Repeated dose toxicity was evaluated in CRL nu/nu mice (6% Tween/4.5% Glycocholate/5% EtOH formulation). The MTTD (maximum total tolerated dose) was 25 mg/kg with a qd×4 dosage regimen.

[2] = test system: Saccharomyces cerevisiae FHCRC-50514; test: Antifungal activity, MIC (NCCLS M27-A); assay type: cell-based; conditions: FHCRC50514, after 24 hours, YPD medium
Procedure: (§1) Testing of antifungal activity was performed according to NCCLS method (NCCLS. Reference Method for Broth Dilution Antifungal Susceptibility Testing of Yeasts; Approved Standard. NCCLS document M27-A (ISBN 1-56238-328-0). NCCLS, 940 West Valley Road, Suite 1400, Wayne, Pa. 19087-1898 USA; www.nccls.org.). Compound 1 was prepared as 100× stock solutions in DMSO, with concentrations ranging from 3.2 mg/mL to 0.003 mg/mL (a two-fold dilution series over 11 points). An aliquot of each 100× stock solution was diluted 50-fold in test medium described below to give a set of eleven (11) 2× solutions. 50 μL of each of the eleven 2× solutions was aliquoted into the corresponding well of a 12-well row, with the final well reserved for medium alone control. Inoculum density for each indicator strain was adjusted to OD600=0.1 in 5 mL 0.85% saline, then further diluted 1/1000 in YPD medium. 50 μL of the final dilution (in test medium) of each indicator strain was added to each well of a 12-well row. This brings the final dilution of the test article or control compound in solution to 1×. The final inoculum was approximately 5×10^4 CFU/ml.
(§2) Bacterial strains Streptococcus pneumoniae LSPQ 3412 and LSPQ 3349 were obtained from the “Laboratoire de Sante Publique du Quebec”. Saccharomyces cerevisiae FHCRC-50014 and FHCRC-50514 were obtained from the “Fred Hutchison Cancer Research Center”.

[3] = test system: Saccharomyces cerevisiae FHCRC-50014; test: Antifungal activity, MIC (NCCLS M27-A); assay type: cell-based; conditions: FHCRC50014, after 24 hours, YPD medium
Procedure: as §1, §2

Sheep red blood cells = test: In vitro toxicity: hemolytic activity; assay type: cell-based; conditions: 2 hrs at 37° C.; 2 to 64 μg/mL; prepared in DMSO or in 6% Tween/4.5% Glycocholate/5% EtOH formulation
Procedure: In vitro toxicity: Sheep red blood cells were exposed to Compound 1 for 2 hrs at 37° C. at concentrations ranging from 2 to 64 μg/mL. Hemolytic activity was determined by monitoring the amount of hemoglobin released spectrophotometrically.

HCT116 (Colon) = test: In vitro cytotoxic activity, 36 tumor cell lines panel; assay type: cell-based; conditions: Homo sapiens, HCT-116, 96 hours
Procedure: (§3) Culture conditions and activity evaluations of Compound 1 against 36 cancer cell lines were done as described below. Results were expressed as the concentration of drug which inhibits 50% of the cell growth (IC50, calculated using the formula: [Ti/C]×100=−50).
(§4) The compound was dissolved at 10 mM in DMSO. Dilution in vehicle to concentrations of 30, 10, 3, 1 and 0.3 μM were prepared immediately before assays. Depending on the cell line's growth characteristics, 4000-10000 cells were plated in two 96-wells pates (day 0) and incubated for 16 hours. The following day, propidium iodide was added to one of the two plates. Test compound was added to the second plate, as well as vehicle control, and cells further incubated for 96 hours. The compound was tested at each concentration and in triplicates. The equivalent cell number was determined after adding propidium iodide by measuring the signal by fluorescence (Ti for test article, C for control).

486L (Renal) = test: as above; assay type: cell-based; conditions: 96 hours
Procedure: as §3, §4

1657L (Pancreas) = test: as above; assay type: cell-based; conditions: 96 hours
Procedure: as §3, §4

1752L (Pleuramesot.) = test: as above; assay type: cell-based; conditions: 96 hours
Procedure: as §3, §4

526L (Lung) = test: as above; assay type: cell-based; conditions: 96 hours
Procedure: as §3, §4

22RV1 (Prostate) = test: as above; assay type: cell-based; conditions: Homo sapiens, 96 hours
Procedure: as §3, §4

PC3M (Prostate) = test: as above; assay type: cell-based; conditions: Homo sapiens, PC-3M, 96 hours
Procedure: as §3, §4

289L (Lung) = test: as above; assay type: cell-based; conditions: 96 hours
Procedure: as §3, §4

1218L (Bladder) = test: as above; assay type: cell-based; conditions: 96 hours
Procedure: as §3, §4

944L (Renal) = test: as above; assay type: cell-based; conditions: 96 hours
Procedure: as §3, §4

OVCAR3 (Ovarian) = test: as above; assay type: cell-based; conditions: Homo sapiens, OVCAR-3, 96 hours
Procedure: as §3, §4

498NL (CNS) = test: as above; assay type: cell-based; conditions: 96 hours
Procedure: as §3, §4

536L (Head & Neck) = test: as above; assay type: cell-based; conditions: 96 hours
Procedure: as §3, §4

MCF7 (Mammary) = test: as above; assay type: cell-based; conditions: Homo sapiens, 96 hours
Procedure: as §3, §4

401NL (Mammary) = test: as above; assay type: cell-based; conditions: 96 hours
Procedure: as §3, §4

SF268 (CNS) [4] = test: as above; assay type: cell-based; conditions: Homo sapiens, SF-268, 96 hours
Procedure: as §3, §4

394NL (Melanoma) = test: as above; assay type: cell-based; conditions: 96 hours
Procedure: as §3, §4

393NL (Renal) = test: as above; assay type: cell-based; conditions: 96 hours
Procedure: as §3, §4

[5] = test system: Enterococcus faecalis VRE-1 (ATCC™ 29212); test: Antibacterial activity, MIC (NCCLS M7-A5); assay type: cell-based; conditions: BHI+ medium, 35° C., 16 to 20 hours
SF268 (CNS) [6] = test: In vitro tumor growth inhibition (GI50, propidium iodide); assay type: cell-based; conditions: Homo sapiens; SF-268; 96 hrs
[7] = test system: PC-3 (prostate adenocarcinoma); test: as above; assay type: cell-based; conditions: 96 hrs
[8] = test system: Enterococcus faecalis VRE-2 (ATCC™ 51299); test: Antibacterial activity, MIC (NCCLS M7-A5); assay type: cell-based; conditions: BHI+ medium, 35° C., 16 to 20 hours

## CCC(C)c1cc2c(=O)c3ccc4c(OC)c5c(=O)c6c(O)ccc(O)c6c(=O)c5c(O)c4c3c(=O)c2c(=O)n1CC(=O)N1CC(C(=O)O)NC(=O)C1C (stereo not shown) [Compound 1]
[1]
  MIC: 4 to 16 µg/mL (≈ 5.42 to 21.7 µM)
CRL nu/nu mice; qd×4 dosage regimen, 6% Tween/4.5% Glycocholate/5% EtOH formulation
  MTTD (maximum total tolerated dose): 25 mg/kg
CRL nu/nu mice; spleen and liver, repeated dosage
  Organ findings following repeated dosage: Adaptive hypertrophy and hyperplasia were observed in spleen and liver
[2]
  MIC: 8 µg/mL (≈ 10.8 µM)
[3]
  MIC: 8 µg/mL (≈ 10.8 µM)
Sheep red blood cells
  Hemolytic activity (hemoglobin released): did not display hemolytic activity up to 64 μg/mL
HCT116 (Colon)
  IC50: 8.24 µM
486L (Renal)
  IC50: 20.7 µM
1657L (Pancreas)
  IC50: 20 µM
1752L (Pleuramesot.)
  IC50: 4.23 µM
526L (Lung)
  IC50: 3.09 µM
22RV1 (Prostate)
  IC50: 1.65 µM
PC3M (Prostate)
  IC50: 0.91 µM
289L (Lung)
  IC50: 5.04 µM
1218L (Bladder)
  IC50: 18.4 µM
944L (Renal)
  IC50: 14.9 µM
OVCAR3 (Ovarian)
  IC50: 26.2 µM
498NL (CNS)
  IC50: 3.7 µM
536L (Head & Neck)
  IC50: 22.5 µM
MCF7 (Mammary)
  IC50: 4.37 µM
401NL (Mammary)
  IC50: < 0.41 µM
SF268 (CNS) [4]
  IC50: 1.52 µM
394NL (Melanoma)
  IC50: 9.99 µM
393NL (Renal)
  IC50: 9.08 µM
[5]
  MIC: 0.063 µg/mL (≈ 0.0854 µM)
SF268 (CNS) [6]
  GI50: 3.36 µM
[7]
  GI50: 11.1 µM
[8]
  MIC: 0.125 µg/mL (≈ 0.169 µM)
